Results published in ChEMBL document CHEMBL5226289, “Discovery of natural anti-inflammatory alkaloids: Potential leads for the drug discovery for the treatment of inflammation” (Eur J Med Chem, 2021).
Residues, ends and D or L forms follow the SMILES beside them. *: point of attachment. Cbz = O=C(OCc1ccccc1)*

Test system: RAW264.7
Assay: Antiinflammatory activity against mouse RAW264.7 cells assessed as inhibition of cell growth
Assay type: functional, cell-based
Settings: not given

Row | Compound | IC50 [µM]
1 | Cc1ccc(-c2cc(C(F)(F)F)nn2-c2ccc(S(N)(=O)=O)cc2)cc1 [CELECOXIB] | 34.3

Test system: HEp-2
Assay: Cytotoxicity against human HEp-2 cells assessed as inhibition of cell growth incubated for 48 hrs by MTT assay
Assay type: functional, cell-based
Settings: HEp-2, 48 h, pooled result: one value given for 7 cell lines, strains, targets or settings

Row | Compound | IC50 [µM]
2 | COC1=CC(=O)c2cc3c4c(cc(O)c(OC)c4c2C1=O)CCN3C | 8.7
3 | COc1ccc2c(cc3c4c(cc5c(c42)OCO5)CCN3C)c1O | 28.9
4 | COC1=CC(=O)c2cc3c4c(cc(OC)c(OC)c4c2C1=O)CCN3C | 10.5

Test system: not listed separately
Assay: Antiinflammatory activity in rat polymorphonuclear leucocyte cells assessed as inhibition of PAF-induced beta-glucuronidase release at 10 uM relative to control
Assay type: functional
Settings: not given

Row | Compound | inhibition at 10 µM [%]
5 | CN1Cc2cc3c(cc2Cc2ccc4c(c2C1)OCO4)OCO3 | 39.6
6 | COC1O[C@H]([C@H]2c3cc4c(cc3CCN2C)OCO4)c2ccc3c(c21)OCO3 (some centres undefined) | 37.7
7 | CN1CCc2cc3c(cc2[C@@H]1[C@H]1OC(O)c2c1ccc1c2OCO1)OCO3 (some centres undefined) | 36.5
8 | CN1CCc2cc3c(cc2[C@@H]1[C@H]1OC(=O)c2c1ccc1c2OCO1)OCO3 | 34.8
9 | C[C@@H]1C(=O)O[C@H]2C(O)C34[C@H]5C[C@@H](C(C)(C)C)[C@]36[C@@H](OC(=O)[C@@H]6O)O[C@@]4(C(=O)O5)[C@@]12O (some centres undefined) | 51.3

Test system: RAW264.7
Assay: Inhibition of NO production in LPS-induced mouse RAW264.7 cells
Assay type: functional, cell-based
Settings: not given

Row | Compound | IC50 [µM]
10 | COC1=C[C@@]23CCN(C)[C@@H](Cc4c(CN5CCc6cc(OC)c(OC)c7c6[C@H]5CC75C=CC(=O)C=C5)cc(OC)c(O)c42)C3=CC1=O | 1.39
11 | O=C(O)c1cc(C(=O)c2ccco2)n2c1CCC2 | 22.8
12 | CN1CCc2cc3c(c4c2[C@H]1Cc1c(O)cccc1-4)OCO3 | 1.39
13 | C[C@@H]1C[C@H]2[C@@H]3CCC4=CC(=O)C=C[C@]4(C)[C@@]3(F)[C@@H](O)C[C@]2(C)[C@@]1(O)C(=O)CO [DEXAMETHASONE] | 47
14 | C[C@@H]1C[C@@H]2CC[C@@H]3[C@@H](C(=O)C[C@@H]4N5CCCC5C[C@H](C)[C@@]4(O)c4ccccc4)[C@](C)(O)C[C@H](N23)[C@@]1(O)c1ccccc1 (some centres undefined) | 14.3
15 | C[C@@H]1C[C@@H]2CCCN2[C@H](CC(=O)C[C@H]2N3CCC[C@H]3C[C@@H](C)[C@]2(O)c2ccccc2)[C@H]1c1ccccc1 | 16.1

Test system: not listed separately
Assay: Inhibition of NO production in LPS-stimulated mouse BV-2 cells incubated for 24 hrs by Griess reagent-based assay
Assay type: functional, cell-based
Settings: BV-2, 24 h

Row | Compound | IC50 [µM]
16 | C[C@@H]1CC2CC(=O)C3CCCN4CCC[C@@]2(O)C34C1 (some centres undefined) | 4.2
17 | CC(=O)O[C@@H]1CC2C3CCCN4CCCC1C34C[C@H](C)[C@H]2O (some centres undefined) | 4.2
18 | C[C@@H]1CC2CC(=O)C3CCCN4CC[C@@H](O)[C@]2(O)C34C1 (some centres undefined) | 4.2
19 | C[C@H]1CC23C4CCCN2CCCC3[C@H](O)CC4[C@H]1O (some centres undefined) | 4.2
20 | C[C@@H]1CC2CC(=O)C3CCCN4CCCC2C34C1 (some centres undefined) | 4.2
21 | CC(=O)O[C@@H]1C2C[C@@H](OC(C)=O)C3CCCN4CCC[C@@]2(O)C34C[C@@H]1C (some centres undefined) | 4.2

Biological target: Prostaglandin G/H synthase 1 (Homo sapiens, UniProt P23219)
Sequence (P23219 whole entry): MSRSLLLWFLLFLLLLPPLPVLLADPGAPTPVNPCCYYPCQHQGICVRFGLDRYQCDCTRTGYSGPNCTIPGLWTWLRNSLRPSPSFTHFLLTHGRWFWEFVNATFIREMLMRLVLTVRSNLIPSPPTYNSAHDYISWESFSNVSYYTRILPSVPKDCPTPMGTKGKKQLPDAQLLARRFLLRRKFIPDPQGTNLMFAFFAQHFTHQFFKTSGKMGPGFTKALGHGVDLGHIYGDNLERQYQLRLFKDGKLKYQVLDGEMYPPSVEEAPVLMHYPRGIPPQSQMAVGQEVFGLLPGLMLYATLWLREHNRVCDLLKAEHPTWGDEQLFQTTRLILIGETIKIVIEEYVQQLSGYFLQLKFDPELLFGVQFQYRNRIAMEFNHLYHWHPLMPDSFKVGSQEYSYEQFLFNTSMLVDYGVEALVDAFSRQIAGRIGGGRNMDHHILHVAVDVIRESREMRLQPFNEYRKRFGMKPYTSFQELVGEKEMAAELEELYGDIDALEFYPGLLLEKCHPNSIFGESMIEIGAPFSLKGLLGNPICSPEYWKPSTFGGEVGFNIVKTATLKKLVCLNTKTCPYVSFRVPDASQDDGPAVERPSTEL
Assay: Inhibition of COX-1 (unknown origin) using arachidonic acid as substrate at 100 uM preincubated for 5 mins followed by substrate addition and measured after 15 mins relative to control
Settings: time 20.0 min

Row | Compound | inhibition [%]
22 | CO[C@H]1[C@@H]2OCOCO[C@H]2[C@H](O[C@@H]2CC(=O)[C@@H]3CCN(Cc4cc5c(cc43)OCO5)C(=O)[C@H]2O)O[C@@H]1C | > 64
23 | COc1cc2c(cc1OC)[C@H]1CCN(C2)C(=O)[C@@H](O)[C@H](O[C@@H]2O[C@H](C)[C@@H](OC)[C@@H]3OCOCO[C@@H]23)CC1=O | > 64
24 | COc1cc2c(cc1O)CN1CC[C@H]2C(=O)C[C@@H](O[C@@H]2O[C@H](CO)[C@@H](OC)[C@H](OC)[C@H]2OC)[C@H](O)C1=O | > 64
25 | COc1cc2c(cc1OC)[C@H]1CCN(C2)C(=O)[C@@H](O)[C@H](O[C@@H]2O[C@H](C)[C@@H](OC)[C@H](OC)[C@H]2OC)CC1=O | > 64
26 | COc1c2c(cc3c1OCO3)[C@H]1CCN(C2)C(=O)[C@@H](O)[C@H](O[C@@H]2O[C@H](CO)[C@@H](OC)[C@H](OC)[C@H]2OC)CC1=O | > 64

Test system: RAW264.7
Assay: Antiinflammatory activity against LPS-stimulated mouse RAW264.7 cells assessed as inhibition of TNFalpha production at 20 uM preincubated for 27 hrs followed by LPS stimulation and measured after 12 hrs by ELISA analysis relative to control
Assay type: functional
Settings: time 39 hrs

Row | Compound | inhibition at 20 µM [%]
27 | CC1(C)C=Cc2c(ccc3c2NC(=O)[C@@]32C[C@]34NC(=O)[C@]5(CCCN5C3=O)C[C@H]4C2(C)C)O1 | > 32.6
28 | C=CC(C)(C)[C@@]1(C[C@@H]2NC(=O)[C@@H]3CCCN3C2=O)C(=O)Nc2c1ccc(O)c2CC=C(C)C | > 32.6
29 | CC1(C)C=Cc2c(ccc3c4c([nH]c23)C(C)(C)[C@@H]2C[C@]35CCCN3C(=O)[C@]2(C4)NC5=O)O1 | > 32.6
30 | CC1(C)C=Cc2c(ccc3c4c(n(S(C)(=O)=O)c23)C(C)(C)[C@@H]2C[C@]35CCCN3C(=O)[C@]2(C4)NC5=O)O1 | > 32.6

Test system: not listed separately
Assay: Inhibition of NO production in LPS-stimulated mouse BV-2 cells preincubated with compound for 1 hrs followed by LPS stimulation and measured after 24 hrs by Griess reagent-based assay
Assay type: functional, cell-based
Settings: not given

Row | Compound | IC50 [µM]
31 | CO[C@H]1[C@@H]2C[C@]34CCCCCCCCCCn5ccc2c5C(=O)[C@@H]3[C@H]2[C@H](O)CCCCCCCC[N@@+]21C4 | 2.1
32 | COc1ccc2c(c1)[nH]c1cc(OC)c(C(=O)O)cc12 [CLAUSINE K] | 4.6
33 | COc1c(CC=C(C)C)c(C=O)cc2c1[nH]c1cc(O)ccc12 | 10.9
34 | CO[C@H]1[C@@H]2C[C@]34CCCCCCCCCCn5ccc2c5C(=O)[C@@H]3[C@H]2C(O)C/C=C\C/C=C\CCC[N@@+]21C4 (some centres undefined) | 1.1
35 | O=Cc1cc2c(cc1O)[nH]c1cc(O)ccc12 [CLAUSINE O] | 6.4

Test system: RAW264.7
Assay: Antiinflammatory activity against LPS-stimulated mouse RAW264.7 cells assessed as inhibition of IL-1beta production at 20 uM preincubated for 27 hrs followed by LPS stimulation and measured after 12 hrs by ELISA analysis relative to control
Assay type: functional
Settings: time 39 hrs

Row | Compound | inhibition at 20 µM [%]
36 | CC1(C)C=Cc2c(ccc3c2NC(=O)[C@@]32C[C@]34NC(=O)[C@]5(CCCN5C3=O)C[C@H]4C2(C)C)O1 | > 32.6
37 | C=CC(C)(C)[C@@]1(C[C@@H]2NC(=O)[C@@H]3CCCN3C2=O)C(=O)Nc2c1ccc(O)c2CC=C(C)C | > 32.6
38 | CC1(C)C=Cc2c(ccc3c4c([nH]c23)C(C)(C)[C@@H]2C[C@]35CCCN3C(=O)[C@]2(C4)NC5=O)O1 | > 32.6
39 | CC1(C)C=Cc2c(ccc3c4c(n(S(C)(=O)=O)c23)C(C)(C)[C@@H]2C[C@]35CCCN3C(=O)[C@]2(C4)NC5=O)O1 | > 32.6

Test system: RAW264.7
Assay: Antiinflammatory activity in mouse RAW264.7 cells assessed as inhibition of LPS-stimulated iNOS activity preincubated with compound for 24 hrs followed by LPS stimulation for 2 hrs and measured 2 hrs after NADPH addition by fluorescence based assay
Assay type: functional, cell-based
Settings: not given

Row | Compound | IC50 [µM]
40 | CC(C)C[C@@H](C=O)NC(=O)[C@H](CC(C)C)NC(=O)[C@H](CC(C)C)NC(=O)OCc1ccccc1 [MG-132] (Cbz-Leu-Leu-Leu-aldehyde) | 0.2

Test system: RAW264.7
Assay: Inhibition of NO production in LPS-stimulated mouse RAW264.7 cells incubated for 24 hrs by Griess reagent-based assay
Assay type: functional, cell-based
Settings: RAW264.7, 24 h

Row | Compound | IC50 [µM]
41 | C/C=C(/C)C(=O)O[C@@H]1CC[N+]2([O-])CC=C(COC(=O)[C@](O)(C(C)C)[C@H](C)OC)[C@H]12 (some centres undefined) | 105
42 | CC[C@H](C)CN1C(=O)c2cc3c(cc2[C@@]24C=C[C@@H](OC)C[C@@H]2N(C)C(=O)[C@@H]14)OCO3 | 1.39
43 | CO[C@@H]1C=C[C@@]23c4cc5c(cc4C(=O)N(CCc4ccccc4)[C@@H]2C(=O)N(C)[C@H]3C1)OCO5 | 1.39
44 | Cc1[nH]c(C=O)c2c1C(=O)N1CCC3(C(=O)Nc4ccccc43)C1C2 (centres undefined) | 0.8
45 | O=c1c(CO)ccc2n1CCc1c-2[nH]c2ccccc12 | 12
46 | C=Cc1cncc2c1CC1c3[nH]c4ccccc4c3CCN1C2=O (centres undefined) | 1.6
47 | O=C(OC[C@@H]1CCN2CCC[C@H]12)c1ccccc1 | 25.5
48 | C/C=C1\CO[C@H](OC)c2c1cc1n(c2=O)CCc2c-1[nH]c1ccccc21 | 3.6
49 | O=C1C=CC2=NC=CC3c4ccccc4N1C23 (centres undefined) | 9.1
50 | N=C(N)NN [PIMAGEDINE] | 1.8
51 | C/C=C1/CN2CC[C@@H]1C(=O)c1[nH]c3ccc(OC)cc3c1C2 | 2.4
52 | C[C@@H](O)C1=CC2=NC=CC3c4ccccc4N(C1=O)C23 (some centres undefined) | 15.1
53 | Cc1cncc2c1CC1c3[nH]c4ccccc4c3CCN1C2=O (centres undefined) | 1.3
54 | CC[C@@H](C)[C@@H](C)C(=O)OC/C=C(\C)C(=O)OC[C@@H]1CCN2CCC[C@H]12 | 38.6
55 | O=C1c2ccccc2-c2c3c(cc4ccnc1c24)OCO3 [LIRIODENINE] | 1.39
56 | C[C@]12CCC(=O)C=C1CC[C@@H]1[C@@H]2[C@@H](O)C[C@@]2(C)[C@H]1CC[C@]2(O)C(=O)CO [HYDROCORTISONE] | 3.4
57 | CN1CCc2cc3c(c4c2[C@H]1Cc1ccccc1-4)OCO3 | 1.39
58 | O=C1C=CC2=NC=CC3c4cc(O)ccc4N1C23 (centres undefined) | 12
59 | O=C1C=CC2=NC=CC3c4ccc(O)cc4N1C23 (centres undefined) | 7.7

Test system: RAW264.7
Assay: Antiinflammatory activity against LPS-stimulated mouse RAW264.7 cells assessed as inhibition of IL-6 production incubated for 24 hrs by ELISA analysis relative to control
Assay type: functional
Settings: not given

Row | Compound | inhibition (INH) [%]
60 | O=C1C(O)=CC[C@@H]2[C@H]3CCCN4CCC[C@@H](CN12)[C@@H]34 | >40
61 | O=c1cccc2n1C[C@@H]1C[C@H]2CN2CCCC[C@@H]12 | >40
62 | O=c1cccc2n1C[C@@H]1CCCN3CCC[C@@H]2[C@H]13 | >40
63 | O=C1C=CC[C@@H]2[C@H]3CCCN4CCC[C@@H](CN12)[C@@H]34 [SOPHOCARPINE] | >40

Test system: RAW264.7
Assay: Antiinflammatory activity against LPS-stimulated mouse RAW264.7 cells assessed as inhibition of TNF-alpha production incubated for 24 hrs by ELISA analysis relative to control
Assay type: functional
Settings: not given

Row | Compound | inhibition (INH) [%]
64 | O=C1C(O)=CC[C@@H]2[C@H]3CCCN4CCC[C@@H](CN12)[C@@H]34 | >40
65 | O=c1cccc2n1C[C@@H]1C[C@H]2CN2CCCC[C@@H]12 | >40
66 | O=c1cccc2n1C[C@@H]1CCCN3CCC[C@@H]2[C@H]13 | >40
67 | O=C1C=CC[C@@H]2[C@H]3CCCN4CCC[C@@H](CN12)[C@@H]34 [SOPHOCARPINE] | >40

Test system: Mus musculus
Assay: Antiinflammatory activity in carrageenan-induced peritoneal Swiss albino mouse model assessed as decrease in number of leukocyte cells at 100 umol/kg, po pre-treated for 30 mins followed by carrageenan induction and measured after 4 hrs relative to control
Assay type: functional
Design: scale not given: the % may be the effect or the level left
Settings: dose 100 µmol/kg, time 4.5 hrs

Row | Compound | Activity [%]
68 | COc1ccc2c(c1)c(CC(=O)O)c(C)n2C(=O)c1ccc(Cl)cc1 [INDOMETHACIN] | 72.1

Test system: not listed separately
Assay: Inhibition of TNF-alpha production in LPS-stimulated human PBMC cells
Assay type: functional, cell-based
Settings: not given

Row | Compound | IC50 [µM]
69 | COc1cc(Cc2ccc3c(c2)[nH]c2c4c(c(C)cc23)OC(C)(CCC=C(C)C)C=C4)cc2c1[nH]c1ccccc12 (centres undefined) | 10
